Inhibition data for 3 compounds are collected here from ChEMBL document CHEMBL3627608, “Crystal structures of human RIP2 kinase catalytic domain complexed with ATP-competitive inhibitors: Foundations for understanding inhibitor selectivity” (Bioorg Med Chem, 2015).

One may read the inhibition as the change of the read-out against control, counted positive when it falls.

For test [1], the target named is Platelet-derived growth factor receptor beta (Homo sapiens) (UniProt P09619). As to the kind of experiment: Inhibition of PDGFRbeta (unknown origin) at 10 uM after 120 mins P33 radiolabeled kinase activity assay.
Platelet-derived growth factor receptor beta (Homo sapiens), sequence (P09619 whole entry): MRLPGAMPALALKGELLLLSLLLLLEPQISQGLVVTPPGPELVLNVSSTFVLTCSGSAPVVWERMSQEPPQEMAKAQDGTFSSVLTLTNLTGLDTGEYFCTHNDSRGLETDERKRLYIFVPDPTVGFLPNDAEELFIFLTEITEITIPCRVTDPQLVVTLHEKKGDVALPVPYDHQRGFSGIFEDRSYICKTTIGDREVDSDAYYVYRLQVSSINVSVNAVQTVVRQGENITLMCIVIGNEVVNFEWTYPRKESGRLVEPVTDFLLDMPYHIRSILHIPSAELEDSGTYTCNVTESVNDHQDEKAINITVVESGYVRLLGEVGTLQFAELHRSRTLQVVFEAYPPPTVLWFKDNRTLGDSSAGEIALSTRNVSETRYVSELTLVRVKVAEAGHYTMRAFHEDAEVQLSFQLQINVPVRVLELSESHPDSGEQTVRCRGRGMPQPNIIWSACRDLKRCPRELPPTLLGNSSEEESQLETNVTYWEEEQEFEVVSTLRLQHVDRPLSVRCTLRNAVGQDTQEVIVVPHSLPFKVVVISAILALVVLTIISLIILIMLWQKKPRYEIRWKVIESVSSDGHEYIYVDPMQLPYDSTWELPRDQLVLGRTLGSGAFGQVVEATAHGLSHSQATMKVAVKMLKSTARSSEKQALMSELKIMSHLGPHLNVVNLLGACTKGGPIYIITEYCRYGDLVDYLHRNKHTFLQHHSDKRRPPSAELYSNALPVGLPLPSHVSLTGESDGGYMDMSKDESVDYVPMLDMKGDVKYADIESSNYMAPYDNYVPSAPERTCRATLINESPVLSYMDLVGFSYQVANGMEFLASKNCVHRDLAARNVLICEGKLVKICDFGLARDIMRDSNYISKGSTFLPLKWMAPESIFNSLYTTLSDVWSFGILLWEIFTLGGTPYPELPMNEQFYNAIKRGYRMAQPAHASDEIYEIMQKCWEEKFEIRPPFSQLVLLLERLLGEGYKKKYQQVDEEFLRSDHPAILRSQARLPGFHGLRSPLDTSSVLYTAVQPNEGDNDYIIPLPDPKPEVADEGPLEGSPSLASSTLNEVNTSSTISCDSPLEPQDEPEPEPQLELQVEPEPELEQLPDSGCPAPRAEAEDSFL
In test [2] the target is T1, Dual serine/threonine and tyrosine protein kinase (Homo sapiens) (UniProt Q6XUX3).
T1 sequence (whole entry): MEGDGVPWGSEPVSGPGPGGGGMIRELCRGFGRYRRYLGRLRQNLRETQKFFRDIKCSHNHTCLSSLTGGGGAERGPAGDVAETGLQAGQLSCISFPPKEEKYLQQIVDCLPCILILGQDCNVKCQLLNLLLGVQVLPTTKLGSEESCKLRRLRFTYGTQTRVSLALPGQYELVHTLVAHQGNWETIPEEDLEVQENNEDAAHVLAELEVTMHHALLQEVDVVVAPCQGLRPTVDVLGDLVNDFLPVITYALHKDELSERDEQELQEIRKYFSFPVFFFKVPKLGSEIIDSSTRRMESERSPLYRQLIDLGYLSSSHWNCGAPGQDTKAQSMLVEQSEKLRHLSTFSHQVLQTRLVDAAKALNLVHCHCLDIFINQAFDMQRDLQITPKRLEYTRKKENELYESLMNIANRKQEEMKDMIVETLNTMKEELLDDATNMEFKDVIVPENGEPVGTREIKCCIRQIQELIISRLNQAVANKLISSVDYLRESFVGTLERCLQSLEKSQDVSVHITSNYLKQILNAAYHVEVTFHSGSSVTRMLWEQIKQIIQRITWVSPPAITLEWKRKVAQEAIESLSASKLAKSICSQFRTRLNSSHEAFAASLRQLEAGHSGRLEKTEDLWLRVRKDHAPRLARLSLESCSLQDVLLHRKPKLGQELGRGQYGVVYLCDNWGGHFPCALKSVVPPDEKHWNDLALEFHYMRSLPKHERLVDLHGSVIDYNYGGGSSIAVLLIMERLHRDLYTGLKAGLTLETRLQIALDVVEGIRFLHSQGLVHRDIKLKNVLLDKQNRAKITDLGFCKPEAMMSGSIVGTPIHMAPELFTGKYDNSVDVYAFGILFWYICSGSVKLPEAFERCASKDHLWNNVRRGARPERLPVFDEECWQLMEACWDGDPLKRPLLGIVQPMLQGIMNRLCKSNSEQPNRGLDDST
In words: Inhibition of RIPK5 (unknown origin) at 10 uM after 120 mins P33 radiolabeled kinase activity assay.

In test [3] the target is Dual specificity mitogen-activated protein kinase kinase 2 (Homo sapiens) (UniProt P36507). As to the kind of experiment: Inhibition of MEK2 (unknown origin) at 10 uM after 120 mins P33 radiolabeled kinase activity assay.
Dual specificity mitogen-activated protein kinase kinase 2 (Homo sapiens), sequence (P36507 whole entry): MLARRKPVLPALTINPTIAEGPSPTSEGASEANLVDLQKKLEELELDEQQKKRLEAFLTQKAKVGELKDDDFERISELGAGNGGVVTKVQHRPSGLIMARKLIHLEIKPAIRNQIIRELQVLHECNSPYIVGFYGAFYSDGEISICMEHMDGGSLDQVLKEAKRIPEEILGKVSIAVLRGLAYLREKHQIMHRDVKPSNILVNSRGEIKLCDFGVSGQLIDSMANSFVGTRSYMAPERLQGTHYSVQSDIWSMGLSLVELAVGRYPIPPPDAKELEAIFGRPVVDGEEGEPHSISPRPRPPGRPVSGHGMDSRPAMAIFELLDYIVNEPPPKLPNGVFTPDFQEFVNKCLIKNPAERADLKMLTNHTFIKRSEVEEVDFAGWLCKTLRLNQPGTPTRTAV
Test [4] concerns the target T2, Serine/threonine-protein kinase TAO2 (Homo sapiens) (UniProt Q9UL54).
T2 sequence (whole entry): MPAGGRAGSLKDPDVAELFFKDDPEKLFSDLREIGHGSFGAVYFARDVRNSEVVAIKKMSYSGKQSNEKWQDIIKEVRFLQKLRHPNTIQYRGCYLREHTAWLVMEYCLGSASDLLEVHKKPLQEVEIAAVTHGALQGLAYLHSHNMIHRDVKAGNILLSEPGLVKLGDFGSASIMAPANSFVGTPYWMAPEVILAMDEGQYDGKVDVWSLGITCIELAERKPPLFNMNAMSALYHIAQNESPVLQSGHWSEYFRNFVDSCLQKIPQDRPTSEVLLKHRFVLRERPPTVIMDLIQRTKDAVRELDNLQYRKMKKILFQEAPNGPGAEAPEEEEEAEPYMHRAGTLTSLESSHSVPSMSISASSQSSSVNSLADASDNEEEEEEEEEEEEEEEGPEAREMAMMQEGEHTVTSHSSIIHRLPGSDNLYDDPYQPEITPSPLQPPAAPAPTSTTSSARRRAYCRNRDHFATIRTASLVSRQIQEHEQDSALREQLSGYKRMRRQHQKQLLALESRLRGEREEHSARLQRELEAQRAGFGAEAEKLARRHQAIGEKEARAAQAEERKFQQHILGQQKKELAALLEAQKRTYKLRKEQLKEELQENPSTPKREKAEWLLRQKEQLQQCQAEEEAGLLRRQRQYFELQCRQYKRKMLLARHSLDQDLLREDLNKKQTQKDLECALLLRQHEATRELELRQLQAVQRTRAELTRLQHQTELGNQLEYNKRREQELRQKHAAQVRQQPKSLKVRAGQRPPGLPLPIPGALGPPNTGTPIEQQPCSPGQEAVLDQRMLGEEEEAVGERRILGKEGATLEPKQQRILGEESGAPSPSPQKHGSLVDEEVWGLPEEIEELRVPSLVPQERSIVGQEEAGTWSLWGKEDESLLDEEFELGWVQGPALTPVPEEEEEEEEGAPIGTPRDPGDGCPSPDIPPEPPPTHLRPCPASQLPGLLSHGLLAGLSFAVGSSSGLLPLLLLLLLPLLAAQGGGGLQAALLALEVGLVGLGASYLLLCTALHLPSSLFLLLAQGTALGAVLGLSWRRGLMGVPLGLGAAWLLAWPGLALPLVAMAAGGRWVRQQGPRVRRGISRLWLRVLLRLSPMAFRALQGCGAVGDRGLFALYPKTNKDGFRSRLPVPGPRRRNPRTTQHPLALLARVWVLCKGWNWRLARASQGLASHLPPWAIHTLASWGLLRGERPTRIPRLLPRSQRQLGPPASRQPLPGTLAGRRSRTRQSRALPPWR
As to the kind of experiment: Inhibition of TAOK2 (unknown origin) at 10 uM after 120 mins P33 radiolabeled kinase activity assay.

The target of test [5] is Activated CDC42 kinase 1 (Homo sapiens) (UniProt Q07912). As to the kind of experiment: Inhibition of ACK1 (unknown origin) at 10 uM after 120 mins P33 radiolabeled kinase activity assay.
Activated CDC42 kinase 1 (Homo sapiens), sequence (Q07912 whole entry, looked up): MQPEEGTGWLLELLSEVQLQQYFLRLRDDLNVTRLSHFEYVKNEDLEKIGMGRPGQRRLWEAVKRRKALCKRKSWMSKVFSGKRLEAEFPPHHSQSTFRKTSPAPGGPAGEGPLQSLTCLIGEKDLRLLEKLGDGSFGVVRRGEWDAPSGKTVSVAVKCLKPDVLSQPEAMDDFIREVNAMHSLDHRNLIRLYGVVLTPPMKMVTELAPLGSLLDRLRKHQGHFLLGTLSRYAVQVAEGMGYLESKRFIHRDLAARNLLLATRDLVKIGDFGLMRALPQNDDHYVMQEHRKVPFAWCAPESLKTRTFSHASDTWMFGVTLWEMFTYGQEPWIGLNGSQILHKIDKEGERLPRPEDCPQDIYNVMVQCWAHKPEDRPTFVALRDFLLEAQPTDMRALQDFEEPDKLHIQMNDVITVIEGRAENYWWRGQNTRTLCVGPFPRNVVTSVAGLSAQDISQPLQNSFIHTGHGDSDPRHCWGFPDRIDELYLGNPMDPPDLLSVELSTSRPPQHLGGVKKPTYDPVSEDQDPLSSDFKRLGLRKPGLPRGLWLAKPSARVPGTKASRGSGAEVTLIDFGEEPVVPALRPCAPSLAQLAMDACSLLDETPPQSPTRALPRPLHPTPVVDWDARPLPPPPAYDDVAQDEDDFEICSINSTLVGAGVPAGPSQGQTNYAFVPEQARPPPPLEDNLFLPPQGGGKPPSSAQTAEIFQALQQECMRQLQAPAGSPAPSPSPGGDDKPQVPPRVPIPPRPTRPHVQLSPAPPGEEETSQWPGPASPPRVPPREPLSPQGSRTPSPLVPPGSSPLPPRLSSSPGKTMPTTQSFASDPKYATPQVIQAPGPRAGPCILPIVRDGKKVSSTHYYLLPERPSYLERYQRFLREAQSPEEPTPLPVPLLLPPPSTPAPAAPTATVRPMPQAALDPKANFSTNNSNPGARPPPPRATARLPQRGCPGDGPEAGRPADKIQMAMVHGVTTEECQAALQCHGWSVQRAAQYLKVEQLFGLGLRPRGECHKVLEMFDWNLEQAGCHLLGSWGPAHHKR
In test [6] the target is Cyclin-dependent kinase 2 (Homo sapiens) (UniProt P24941). As to the kind of experiment: Inhibition of CDK2 (unknown origin) at 10 uM after 120 mins P33 radiolabeled kinase activity assay.
Test [7] deals with Casein kinase I isoform delta (Homo sapiens) (UniProt P48730). In words: Inhibition of CK1delta (unknown origin) at 10 uM after 120 mins P33 radiolabeled kinase activity assay.
Casein kinase I isoform delta (Homo sapiens), sequence (P48730 whole entry, looked up, canonical isoform): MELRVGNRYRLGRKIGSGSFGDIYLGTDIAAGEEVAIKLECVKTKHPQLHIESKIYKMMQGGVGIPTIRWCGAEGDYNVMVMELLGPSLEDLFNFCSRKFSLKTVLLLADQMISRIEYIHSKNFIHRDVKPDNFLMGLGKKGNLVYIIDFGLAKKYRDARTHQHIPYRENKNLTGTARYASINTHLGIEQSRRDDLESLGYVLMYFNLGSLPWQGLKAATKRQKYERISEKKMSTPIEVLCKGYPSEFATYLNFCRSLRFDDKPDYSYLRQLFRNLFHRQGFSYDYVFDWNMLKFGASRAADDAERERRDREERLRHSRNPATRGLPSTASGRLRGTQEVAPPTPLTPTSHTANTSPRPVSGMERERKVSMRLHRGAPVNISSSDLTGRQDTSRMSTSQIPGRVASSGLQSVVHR

As to `COCCNC(=O)c1ccc2c(c1)nc(-c1cnc(-c3ccc(Cl)cc3)[nH]1)n2CCOC`, the inhibition in test [1] was 11.1%; in test [2], -4.89%; in test [3], -5.83%; in test [4] it was 1.71%; in test [5], 16.4%; in test [6], 7.06%. Further, the inhibition in test [7] stood at 77.8%.
`CC(C)(C)c1cc(NC(=O)Nc2ccc(Oc3ccncc3)cc2)no1`: the inhibition in test [1] was 99.5%; in test [2], -0.31%; in test [3], 52.5%; in test [4], 96.7%; in test [5], 21.6%; in test [6], 67.3%. Moreover, in test [7], the inhibition came to 13.5%.
Take `CS(=O)(=O)c1cccc(Nc2nccc(-c3sc(N4CCOCC4)nc3-c3cccc(NS(=O)(=O)c4c(F)cccc4F)c3)n2)c1`: the inhibition in test [1] was 91%; in test [2], 25%; in test [3], 79%; in test [4] it was 77.8%; in test [5], 96.5%; in test [6], 75.7%. The inhibition in test [7] was determined as 20.5%.
